We go through two compounds from patent publication US11584727B2, “2-thioxothiazolidin-4-one derivatives active as transthyretin ligands and uses thereof” (BSIM Therapeutics, S.A., priority 2014, dated 2023).

One data set has as its system FAP patients. The conditions noted are these: 18-month phase-III clinical trial; cited from earlier work.
Data set [1] can be described thus: HepG2 cell viability, resazurin reduction assay. It counts as cell-based. To be noted: human, HepG2 hepatoma cells, approximately 72 hours incubation, read-out: inhibitory dose (ID50), cell viability. The text has this:
Cell viability of HepG2 hepatoma cells was quantified in order to assess the toxicity of the compounds at increasing concentrations. The used assay is described in detail in the “Experimental Evaluation of Cytotoxicity of Compounds using Cell-based Assays” section in “Materials and Methods”. This is a relevant assessment not just to discard potential concerns of liver damage (which is a problem reported for many drugs) but also because of the long-term nature of the treatments that patients suffering from TTR-mediated amyloidoses need to undertake.
Adherent human hepatoma cells HepG2 were cultured in DMEM (Dulbecco's Modified Eagle's Medium) with 10% fetal bovine serum (FBS), 100 U/mL penicillin, […] streptomycin, and 1 mM sodium pyruvate. The cells were grown in 75 cm^2 culture flasks at 37° C., in an atmosphere of 5% CO2, and subcultured twice a week using a trypsin-EDTA solution.
Upon 3 to 4 days of growth and reaching approximately 90% confluence, HepG2 cells were plated in 96-well microplates with cell density of 12×10^3 cells/well and in a volume of 100 μL per well.
The compounds are dissolved in DMSO and subsequently diluted in DMEM (in 9 intermediate […] concentrations). After adhesion of HepG2 cells to the microplates, […] 100 μL of each solution of intermediate compound concentration were added to each well (in quadruplicate). Positive controls were done with 10 wells containing only cells; solvent controls resulted from the analysis of the three highest DMSO concentrations tested and were carried out in triplicate.
After addition of the compounds to the cells, the microplates were incubated for approximately 72 hours at 37° C. in an atmosphere of 5% CO2 until the cell viability assay was performed.
The cell viability of HepG2 cells in the presence of test compounds was assessed by the resazurin reduction assay. Resazurin is a redox indicator that is converted into resorufin through reduction reactions of metabolically active cells. In the oxidized form it presents a purplish blue color, while the reduced form presents a purple-pink color.
A stock solution of 0.01% resazurin in PBS is diluted 1:10 in incomplete RPMI 1640 cell medium (without addition of antibiotics and FBS). After washing the cells with 200 μL PBS containing Ca^2+ and Mg^2+, 200 μL of resazurin 0.001% are added to the wells. Control runs with incomplete RPMI 1640 medium only and (without cells) are done in triplicate. […]
To quantify the reduction of resazurin to resorufin, microplate absorbance readings were taken at two wavelengths, 540 nm (reduced form) and 630 nm (oxidized form), in a Biotek spectrophotometer microplate reader. The percentage of viable cells at each compound concentration is determined using the formula: […]
(In general: The colour change of resazurin is a common sign of viable cells or microbes.)

The target of a further data set is T1, human plasma TTR (Homo sapiens, UniProt P02766).
T1 construct: from tissue; host or cells: human plasma
In words: Tetrameric TTR stability by isoelectric focusing (IEF) of plasma TTR, ex vivo. The conditions noted are these: human plasma incubated with compound; control (vehicle) 0.717. It counts as biochemical.

Protocol for human plasma TTR: To perform the assay, 30 μL of human plasma are incubated with 5 μL of a 10 mM solution of test compounds and control compounds overnight at 4° C. followed by a 1 hour incubation at room temperature. The preparations are subjected to native PAGE. The gel band containing TTR is then excised and applied to an IEF gel and IEF is carried out in semi-denaturing conditions. Proteins are stained with Coomassie Blue, the gels are scanned and subjected to densitometry. The results are expressed as the ratio of TTR tetramer over the total TTR species present, reflecting TTR stability.
After treatment with the test compounds, TTR was separated by PAGE and the isolated protein was analyzed by IEF.
To perform the assay, 30 μL of human plasma are incubated with 5 μL of a 10 mM solution of test compounds and control compounds overnight at 4° C. followed by a 1 hour incubation at RT. The preparations are subjected to native PAGE and the gel band containing TTR is excised and applied to an IEF gel. IEF is carried out in semi-denaturing conditions (4 M urea), containing 5% (v/v) ampholytes pH 4-6.5 (GE Healthcare), at 1200 V for 6 hours. Proteins are stained with Coomassie Blue, the gels are scanned and subjected to densitometry using the ImageQuant program. The results are expressed as the ratio of TTR tetramer over total TTR.

Take `O=C(O)c1ccc2nc(-c3cc(Cl)cc(Cl)c3)oc2c1` [Tafamidis, reference compound]: in the data set with FAP patients, the “FAP patients with improvement of symptoms” value is recorded as “approximately 60%”. Besides, in data set [1], the IC50 at 72 h is ~250 µM.

Regarding `COc1cc(/C=C2\SC(=S)N(CC(=O)O)C2=O)cc(Cl)c1O` [AT50-A00 (Z), (Z)-3-hydroxycarbonylmethyl-5-(3′-chloro-4′-hydroxy-5′-methoxyphenylmethylidene)-2-thioxothiazolidin-4-one], the “tetramer/monomer ratio (IEF densitometry)” value at human plasma TTR is on record as 0.838. The IC50 at 72 h in data set [1] was > 400 µM.
